Results as given in article PMC10380385, “Synthesis, In Vitro, and In Vivo Investigations of Pterostilbene-Tethered Analogues as Anti-Breast Cancer Candidates” (International Journal of Molecular Sciences, 2023).
Several values for one entry are separate records, joined by “and”; a condition that tells them apart may be missing. Equal entries are not always repeated.

Experiments:
MCF-7 cells [1] = experiment: MTT anti-proliferative assay, MCF-7; assay type: cell-based; details: Homo sapiens, MCF7, 48 h
Experimental: (§1) The in vitro anti-proliferative activity of all synthesized analogues against MDA-MB-231 and MCF-7 cells was tested using the 3-(4,5-dimethylthiazol-2-yl)-[…] (MTT) method. […] Usually, Dox has been used as a positive control in many basic studies, especially drug screening assay. […] In the meantime, the cytotoxic activity of 2K–2N, PTE, and Dox against MCF-10A (human breast epithelial cell line) was examined. […] By contrast, the substitution of a saturated six-membered nitrogen heterocyclic ring on the side chain is extremely favorable for enhancing anti-BC efficacy (2L–2N vs. 1, PTE, 2A–2J). Based on the preceding analysis, analogue 2L was selected as the most promising anti-BC agent and used in the follow-up study.
(§2) The human breast cancer cell lines MDA-MB-231 and MCF-7 were purchased from the Chinese Academy of Science and cultured in Dulbecco’s modified Eagle’s medium (DMEM, Gibco, New York, NY, USA) containing 10% fetal bovine serum (FBS), 2 mM L-glutamine, 100 U/mL penicillin, and 100 μg/mL streptomycin. Then, the cells were maintained in a humidified incubator at 37 °C in the presence of 5% CO2.
(§3) The MTT assay was used to test the effect of PTEs on cell viability. The MDA-MB-231 (3 × 10^3 cells/well) and MCF-7 (4 × 10^3 cells/well) cells were seeded in a 96-well plate and cultured at 37 °C in a 5% CO2 incubator overnight. Afterwards, the medium was replaced with different concentrations of the title compounds (1, 3, 10, 30, and 100 μM). After incubation for 48 h, 10 μL of MTT solution (5 mg/mL) was added to each well and incubated for another 4 h. The optical density (OD) of the samples was measured using a microplate reader (Biotek, Burlington, VT, USA) at 570 nm. The inhibition rate (%) = [A570 (control) − A570 (compound)]/A570 (control) × 100%. The IC50 values were calculated using SPSS software version 17.0 (SPSS Inc., Chicago, IL, USA).

MDA-MB-231 cells [2] = experiment: MTT anti-proliferative assay, MDA-MB-231; assay type: cell-based; details: Homo sapiens, 48 h
Experimental: as §1, §2, §3

[3] = test system: MCF-10A (human breast epithelial cell line); experiment: Cytotoxic activity against MCF-10A; assay type: cell-based; details: cytotoxicity, normal breast epithelial cells
Experimental: as §1

[4] = test system: apoptosis-related proteins in MCF-7 cells; experiment: Western blot of apoptosis-related proteins, MCF-7; assay type: cell-based, human; details: MCF-7, 2L 1.1, 3.3, 10 μM, 24 h
Experimental: (§4) MDA-MB-231 and MCF-7 cells were cultured in a 6-well plate with the density of 3 × 10^5 cells/well and treated with different concentrations of 2L (0, 1.1, 3.3, 10 μM) for 24 h. The cells were lysed in radioimmunoprecipitation assay (RIPA) buffer (Beyotime, Shanghai, China) containing 1% protease inhibitor cocktail and 1 mM phenylmethylsulfonyl fluoride (PMSF, Sigma-Aldrich, St. Louis, MO, USA). After centrifugation, the supernatant was collected and quantified by BCA assay (Beyotime). Lysates were mixed with the loading buffer (5 ×) and denatured by boiling for 10 min. Then, the equivalent samples were separated via 10–15% sodium dodecyl–sulfate polyacrylamide gel electrophoresis (SDS-PAGE), transferred to 0.45 µm immunoblot poly(vinylidene fluoride) (PVDF) membranes (Merck Millipore, Darmstadt, Germany) at 4 °C, and blocked in 5% skimmed milk in TBST for 1 h at room temperature. The membranes were incubated overnight at 4 °C with specific primary antibodies. After washing three times with TBST, the PVDF membranes were incubated with horseradish peroxidase (HRP)-conjugated secondary antibodies at rt for 1 h. Lastly, the resulting bands were visualized by a Bio-Rad ChemiDoc imaging system ([…]) using enhanced chemiluminescence reagents (Millipore, Billerica, MA, USA). The details of the corresponding primary antibodies were as follows: Bax (2772; Cell Signaling Technology), Bcl-2 (3498; Cell Signaling Technology), cleaved caspase-3 (9661; Cell Signaling Technology), cleaved caspase-9 (9505; Cell Signaling Technology), and PARP (9542; Cell Signaling Technology). The HRP-secondary antibodies were also obtained from Cell Signaling Technology (Boston, MA, USA).

MCF-7 cells [5] = experiment: Annexin V-FITC/PI apoptosis flow cytometry, MCF-7; assay type: cell-based, human
Experimental: (§5) MDA-MB-231 and MCF-7 cells (3 × 10^5 cells/well) were seeded into 6-well plates. After that, the cells were treated with 2L (0, 10 μM) for 24 h. Cells were harvested, washed repeatedly with cold phosphate-buffered saline (PBS), and resuspended in 195 μL of binding buffer. Then, 4 μL annexin V-FITC reagent (Beyotime) and 8 μL propidium iodide (PI, Beyotime) were added to the samples and gently mixed. After incubation for 15 min in the dark at room temperature, the stained cells were immediately detected by a FACScan flow cytometer (BD Biosciences, San Jose, CA, USA) and analyzed with the annexin V-FITC/PI apoptosis method.

MDA-MB-231 cells [6] = experiment: DNA content / cell cycle of PI-stained cells by flow cytometry, MDA-MB-231; assay type: cell-based, human; details: MDA-MB-231, 10.0 μM
Description: (§6) It is commonly acknowledged that […] DNA fragmentation is a crucial hallmark of cell apoptosis. Next, we assessed the influence of 2L on the DNA content of PI-stained BC cells using flow cytometry. […] In turn, treatment with 2L led to an apparent enhancement of the number of MCF-7 cells, from 51.7% to 63.0%. […] An augmentation of DNA distribution in the SubG1 peak was representative of the occurrence of apoptosis in 2L-exposed groups, which further confirmed that 2L could induce the apoptosis of BC cells. In addition, the quantitative analysis of DNA distribution for the subG1, G0/G1, S, and G2/M phases appeared to show similar alterations (Figure 4B,D).

MDA-MB-231 cells [7] = experiment: Annexin V-FITC/PI apoptosis flow cytometry, MDA-MB-231; assay type: cell-based, human
Experimental: as §5

MDA-MB-231 cells [8] = experiment: Intracellular ROS, DCFH-DA, MDA-MB-231; assay type: cell-based, human; details: MDA-MB-231, 2L 24 h, vs control
Experimental: (§7) The Reactive Oxygen Species Assay Kit was used to measure intracellular ROS levels. MDA-MB-231 and MCF-7 cells (6 × 10^4 cells/well) were seeded onto 24-well plates and treated with 2L (0, 10 μM) for 24 h. Subsequently, the cells were washed with PBS and stained with dichlorodihydrofluorescein diacetate (DCFH-DA, 10 μM) at 37 °C for 20 min in the dark. Following three washes with serum-free DMEM, the fluorescence alteration was photographed using a fluorescence microscope.
(§8) MDA-MB-231 and MCF-7 cells were plated in 6-well plates with a density of 3 × 10^5 cells/well. After exposure to 2L for 24 h, the cells were incubated with 10 μM DCFH-DA at 37 °C for 20 min in the dark. Later, the cells were slightly washed three times with serum-free DMEM and centrifuged (1000 rpm, 5 min). The collected cells were resuspended in PBS and loaded into a flow cytometer.

[9] = test system: apoptosis-related proteins in MDA-MB-231 cells; experiment: Western blot of apoptosis-related proteins, MDA-MB-231; assay type: cell-based, human; details: MDA-MB-231, 2L 1.1, 3.3, 10 μM, 24 h
Experimental: as §4

MCF-7 cells [10] = experiment: Intracellular ROS, DCFH-DA, MCF-7; assay type: cell-based, human; details: MCF-7, 2L 24 h, vs control
Experimental: as §7, §8

MDA-MB-231 cells [11] = experiment: Mitochondrial membrane potential JC-1 assay, MDA-MB-231; assay type: cell-based, human; details: MDA-MB-231, 24 h, flow cytometry
Experimental: (§9) The MMP was assayed using a JC-1 assay kit (Beyotime, Shanghai, China) according to the manufacturer’s instructions. In brief, MDA-MB-231 and MCF-7 cells were plated in 24-well plates at a density of 6 × 10^4 cells per well. After intervention with 2L (0, 10 μM) for 24 h, the cells were washed once with PBS. Cell culture solution (0.5 mL) and JC-1 working solution (0.5 mL) were successively added, mixed well, and incubated at 37 °C for 20 min in the dark. After washing twice with 1 × JC-1 staining buffer, the cells were resuspended in fresh culture medium. The graphical results were observed under a fluorescence microscope.
(§10) MDA-MB-231 and MCF-7 cells were incubated in 6-well plates at a density of 3 × 10^5 cells per dish and exposed to 2L for 24 h. Cell culture media (1 mL) and JC-1 staining working solution (1 mL) were added, thoroughly mixed, and incubated at 37 °C for 20 min. After washing twice with 1 × JC-1 staining buffer, the cells were collected and resuspended in 500 μL JC-1 staining buffer and then instantly analyzed using a flow cytometry.

MCF-7 cells [12] = experiment: DNA content / cell cycle of PI-stained cells by flow cytometry, MCF-7; assay type: cell-based, human; details: MCF-7, 10.0 μM
Description: as §6

MCF-7 cells [13] = experiment: Mitochondrial membrane potential JC-1 assay, MCF-7; assay type: cell-based, human; details: MCF-7, 24 h, flow cytometry
Experimental: as §9, §10

MDA-MB-231 xenograft = experiment: MDA-MB-231-derived xenograft mouse model; assay type: in vivo; details: for tumor growth inhibition (TGI): intraperitoneal, every other day, 10 treatments, by tumor weight
Experimental: BALB/c nude mice (female, 6–7 weeks) were purchased from Changsheng Biotechnology Co., Ltd. (Liaoning, China). MDA-MB-231 cells (5 × 10^6 cells/mouse) were injected subcutaneously into the right back of the nude mice. When the tumor volume reached approximately 55 mm^3, the female mice were randomly divided into two treatment groups (25, 50 mg/kg) and a vehicle group (equal volume of normal saline) with five mice in each group. Throughout the experiment, 2L and saline were intraperitoneally injected every other day for 10 treatments. At the same time, the changes in tumor volume and body weight of the nude mice were tracked and recorded. The tumor volumes were assessed using the formula: V (mm^3) = (length × width^2)/2. At the end of the experimental period, tumor tissues were harvested, weighed, and collected. The TGI rate was calculated by the average tumor weight of the 2L-treated and control groups.

COc1cc(/C=C/c2ccc(OCCCn3ccnc3)cc2)cc(OC)c1 [Compound 2K, (E)-1-(3-(4-(3,5-dimethoxystyryl)phenoxy)propyl)-1H-imidazole]
IC50 (MCF-7 cells [1]): 21 ± 0.56 µM
IC50 (MDA-MB-231 cells [2]): 18.7 ± 0.71 µM
IC50 [3]: 49 ± 1.31 µM

COc1cc(/C=C/c2ccc(OCCCN3CCCCC3)cc2)cc(OC)c1 [Compound 2L, (E)-1-(3-(4-(3,5-dimethoxystyryl)phenoxy)propyl)piperidine]
IC50 (MCF-7 cells [1]): 11.7 ± 0.55 µM
expression of Bcl-2 [4]: markedly downregulated
level of Bax [4]: upregulated
protein expression of cleaved caspase-3 [4]: increase
protein expression of cleaved caspase-9 [4]: increase
protein level of cleaved PARP [4]: effectively elevate
apoptosis ratio with NAC (MCF-7 cells [5]; MCF-7, 2L 10 μM + 5 mM NAC): 6.7%
apoptosis ratio with Z-VAD-FMK (MCF-7 cells [5]; MCF-7, 2L 10 μM + Z-VAD-FMK 20 μM): 6.5%
apoptotic percentage (early and late) (MCF-7 cells [5]; MCF-7, 2L 10 μM, 24 h): 14.0% and 14.5% and 12.2%
percentage of cells in subG1 (MDA-MB-231 cells [6]): 7.99%
proportion of cells in G0/G1 phase (MDA-MB-231 cells [6]): 61.7%
apoptosis ratio with NAC (MDA-MB-231 cells [7]; MDA-MB-231, 2L 10 μM + 5 mM NAC): 8.8%
apoptosis ratio with Z-VAD-FMK (MDA-MB-231 cells [7]; MDA-MB-231, 2L 10 μM + Z-VAD-FMK 20 μM): 6.2%
apoptotic percentage (early and late) (MDA-MB-231 cells [7]; MDA-MB-231, 2L 10 μM, 24 h): 12.7% and 16.1% and 13.1%
mean ROS-associated fluorescence intensity (MDA-MB-231 cells [8]): greatly increased
expression of Bcl-2 [9]: markedly downregulated
level of Bax [9]: upregulated
protein expression of cleaved caspase-3 [9]: increase
protein expression of cleaved caspase-9 [9]: increase
protein level of cleaved PARP [9]: effectively elevate
mean ROS-associated fluorescence intensity (MCF-7 cells [10]): greatly increased
ΔΨm level after 2L (MDA-MB-231 cells [11]): 83.9%
percentage of cells in subG1 (MCF-7 cells [12]): 7.83%
proportion of cells in G0/G1 phase (MCF-7 cells [12]): 63.0%
IC50 (MDA-MB-231 cells [2]): 10.4 ± 0.4 µM
IC50 [3]: 68.9 ± 0.93 µM
ΔΨm level after 2L (MCF-7 cells [13]): 85.0%
tumor growth inhibition (TGI) (MDA-MB-231 xenograft; 25 mg/kg): 42.0%
tumor growth inhibition (TGI) (MDA-MB-231 xenograft; 50 mg/kg): 69.9%
toxicity in nude mice (body weight fluctuation) (MDA-MB-231 xenograft; 25 and 50 mg/kg, whole study): no obvious toxicity
level of Bcl-2 protein in tumor tissues (MDA-MB-231 xenograft; Western blot, vs control group): decreased
protein expression of Bax in tumor tissues (MDA-MB-231 xenograft; Western blot, vs control group): noticeably increased
protein expression of cleaved PARP in tumor tissues (MDA-MB-231 xenograft; Western blot, vs control group): noticeably increased

COc1cc(/C=C/c2ccc(OCCCN3CCOCC3)cc2)cc(OC)c1 [Compound 2M, (E)-4-(3-(4-(3,5-dimethoxystyryl)phenoxy)propyl)morpholine]
IC50 (MCF-7 cells [1]): 42 ± 0.79 µM
IC50 (MDA-MB-231 cells [2]): 49.3 ± 2.48 µM
IC50 [3]: 70.39 ± 0.43 µM

COc1cc(/C=C/c2ccc(OCCCN3CCN(C)CC3)cc2)cc(OC)c1 [Compound 2N, (E)-1-(3-(4-(3,5-dimethoxystyryl)phenoxy)propyl)-4-methylpiperazine]
IC50 (MCF-7 cells [1]): 18.1 ± 0.55 µM
IC50 (MDA-MB-231 cells [2]): 17.7 ± 0.81 µM
IC50 [3]: 37.3 ± 0.96 µM

COc1cccc2c1C(=O)c1c(O)c3c(c(O)c1C2=O)C[C@@](O)(C(=O)CO)C[C@@H]3O[C@H]1C[C@H](N)[C@H](O)[C@H](C)O1 [Dox, Doxorubicin, reference compound]
IC50 (MCF-7 cells [1]): 3.57 ± 0.41 µM
IC50 (MDA-MB-231 cells [2]): 2.3 ± 0.32 µM
IC50 [3]: 2.27 ± 0.19 µM

COc1cc(/C=C/c2ccc(O)cc2)cc(OC)c1 [PTE, 3,5-dimethoxy-4′-hydroxy-trans-stilbene, reference compound]
IC50 (MCF-7 cells [1]): 44.3 ± 0.48 µM
IC50 (MDA-MB-231 cells [2]): 63.59 ± 0.4 µM
IC50 [3]: > 100 µM
